According to ChEMBL document CHEMBL5465560, “Selectivity Literature for EUbOPEN Chemogenomic Library” (2024):

Columns and labels:
[1] = molecular target: T1, Ephrin type-A receptor 6 (Homo sapiens) (UniProt Q9UF33); assay: Selectivity interaction (LanthaScreen Eu Kinase Binding Assay) EUB0001632a EPHA6; conditions: at 10 µM
T1 sequence (whole entry): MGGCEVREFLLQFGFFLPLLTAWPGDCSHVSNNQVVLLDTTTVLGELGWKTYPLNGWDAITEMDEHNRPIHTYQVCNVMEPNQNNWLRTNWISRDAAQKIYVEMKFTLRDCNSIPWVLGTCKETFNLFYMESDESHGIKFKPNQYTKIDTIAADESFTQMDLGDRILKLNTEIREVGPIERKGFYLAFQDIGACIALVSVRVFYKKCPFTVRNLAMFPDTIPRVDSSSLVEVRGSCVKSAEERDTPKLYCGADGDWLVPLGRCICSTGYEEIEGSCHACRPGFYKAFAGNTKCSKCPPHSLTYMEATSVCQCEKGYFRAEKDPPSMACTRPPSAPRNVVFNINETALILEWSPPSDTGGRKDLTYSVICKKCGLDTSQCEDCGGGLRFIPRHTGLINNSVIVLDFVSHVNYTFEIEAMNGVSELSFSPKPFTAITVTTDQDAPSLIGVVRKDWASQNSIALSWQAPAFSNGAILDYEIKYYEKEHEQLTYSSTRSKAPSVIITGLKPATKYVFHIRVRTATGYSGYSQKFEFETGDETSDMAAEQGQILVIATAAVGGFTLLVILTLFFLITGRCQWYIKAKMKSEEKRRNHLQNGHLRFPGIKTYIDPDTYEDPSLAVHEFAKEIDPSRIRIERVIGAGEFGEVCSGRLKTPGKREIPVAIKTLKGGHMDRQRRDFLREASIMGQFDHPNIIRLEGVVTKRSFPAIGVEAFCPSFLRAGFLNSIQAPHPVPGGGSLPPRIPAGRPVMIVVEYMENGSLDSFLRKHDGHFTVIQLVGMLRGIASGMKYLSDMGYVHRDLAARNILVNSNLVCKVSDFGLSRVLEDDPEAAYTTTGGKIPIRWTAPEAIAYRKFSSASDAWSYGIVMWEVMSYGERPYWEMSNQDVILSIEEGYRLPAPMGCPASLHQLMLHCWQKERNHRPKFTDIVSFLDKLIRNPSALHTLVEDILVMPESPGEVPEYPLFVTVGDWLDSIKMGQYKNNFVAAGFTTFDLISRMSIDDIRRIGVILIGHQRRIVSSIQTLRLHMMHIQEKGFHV

[2] = molecular target: T2, Interleukin-1 receptor-associated kinase 3 (Homo sapiens) (UniProt Q9Y616); assay: Selectivity interaction (Ambit KINOMEscan and KiNATiv profiling in Jurkat cells) EUB0000090b IRAK3; type: cell-based; conditions: at 1 µM
T2 sequence (whole entry): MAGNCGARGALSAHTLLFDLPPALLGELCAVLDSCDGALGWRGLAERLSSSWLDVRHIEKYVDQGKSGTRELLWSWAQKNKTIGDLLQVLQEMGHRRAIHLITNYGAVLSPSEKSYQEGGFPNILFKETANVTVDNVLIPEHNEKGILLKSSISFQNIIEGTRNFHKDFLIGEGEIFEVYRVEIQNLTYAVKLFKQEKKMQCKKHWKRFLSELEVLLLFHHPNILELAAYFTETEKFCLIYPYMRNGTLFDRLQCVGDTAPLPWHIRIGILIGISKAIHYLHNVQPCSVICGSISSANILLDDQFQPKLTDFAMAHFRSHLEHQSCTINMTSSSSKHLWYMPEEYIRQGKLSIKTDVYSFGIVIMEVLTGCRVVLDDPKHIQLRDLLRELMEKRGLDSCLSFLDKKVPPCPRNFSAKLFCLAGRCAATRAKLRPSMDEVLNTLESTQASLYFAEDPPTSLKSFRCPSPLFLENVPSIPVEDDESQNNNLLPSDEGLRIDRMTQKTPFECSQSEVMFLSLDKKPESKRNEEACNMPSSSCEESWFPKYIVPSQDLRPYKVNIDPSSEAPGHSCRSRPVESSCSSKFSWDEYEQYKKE

[3] = molecular target: Ribosomal protein S6 kinase alpha-4 (Homo sapiens) (UniProt O75676); assay: Selectivity interaction (Ambit KINOMEscan and KiNATiv profiling in Jurkat cells) EUB0000090b RPS6KA4; type: cell-based; conditions: at 1 µM
[4] = molecular target: Serine/threonine-protein kinase 32A (Homo sapiens) (UniProt Q8WU08); assay: Selectivity interaction (KinomeScan (DiscoverX)) EUB0001619a STK32A; conditions: at 1 µM
Sequence of Serine/threonine-protein kinase 32A (Homo sapiens) (Q8WU08 whole entry): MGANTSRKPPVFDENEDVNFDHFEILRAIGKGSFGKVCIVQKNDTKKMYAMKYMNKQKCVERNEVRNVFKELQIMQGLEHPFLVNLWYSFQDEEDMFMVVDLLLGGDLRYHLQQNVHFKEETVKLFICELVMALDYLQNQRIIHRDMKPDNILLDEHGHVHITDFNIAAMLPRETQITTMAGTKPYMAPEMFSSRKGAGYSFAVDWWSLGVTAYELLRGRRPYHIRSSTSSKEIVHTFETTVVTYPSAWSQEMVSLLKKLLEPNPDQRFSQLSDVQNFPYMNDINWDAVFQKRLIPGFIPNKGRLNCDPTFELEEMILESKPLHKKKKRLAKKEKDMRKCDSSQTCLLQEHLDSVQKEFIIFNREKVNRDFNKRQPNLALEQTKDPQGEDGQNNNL

Sequence of Ribosomal protein S6 kinase alpha-4 (Homo sapiens) (O75676 whole entry, looked up): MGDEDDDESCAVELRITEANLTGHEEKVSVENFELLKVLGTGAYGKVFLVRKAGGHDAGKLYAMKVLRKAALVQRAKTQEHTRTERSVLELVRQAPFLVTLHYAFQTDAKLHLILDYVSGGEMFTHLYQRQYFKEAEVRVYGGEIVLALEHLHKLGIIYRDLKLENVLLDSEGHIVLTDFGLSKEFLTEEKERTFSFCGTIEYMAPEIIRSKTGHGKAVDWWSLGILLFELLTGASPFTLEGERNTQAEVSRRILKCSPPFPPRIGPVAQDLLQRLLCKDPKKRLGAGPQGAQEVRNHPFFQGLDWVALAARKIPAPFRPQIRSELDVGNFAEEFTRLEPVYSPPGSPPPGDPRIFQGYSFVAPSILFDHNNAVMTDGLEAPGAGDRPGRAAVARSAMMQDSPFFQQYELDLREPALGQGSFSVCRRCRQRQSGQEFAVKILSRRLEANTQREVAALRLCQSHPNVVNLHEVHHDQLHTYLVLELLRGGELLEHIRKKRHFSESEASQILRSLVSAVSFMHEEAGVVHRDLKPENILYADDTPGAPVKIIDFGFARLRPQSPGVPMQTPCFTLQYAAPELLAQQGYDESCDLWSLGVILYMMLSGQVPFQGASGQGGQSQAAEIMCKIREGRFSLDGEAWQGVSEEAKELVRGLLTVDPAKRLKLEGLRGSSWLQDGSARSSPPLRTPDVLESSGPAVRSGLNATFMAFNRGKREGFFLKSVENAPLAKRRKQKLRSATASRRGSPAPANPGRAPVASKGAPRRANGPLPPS

## Cn1cc(-n2cnc3c(NCc4nc5cc(Cl)c(Cl)cc5[nH]4)nc(N4CCOCC4)nc32)cn1
[1]
  % of inhibition: -24%

## CN(C)C/C=C/C(=O)Nc1ccc(C(=O)N2CCCC(Nc3ncc(Cl)c(-c4c[nH]c5ccccc45)n3)C2)cc1 (centres undefined)
[2]
  % of control: 68%
[3]
  % of control: 100%

## N#Cc1cccc(-c2c[nH]c3ncnc(N4CCOCC4)c23)c1
[4]
  % of control: 100%
